{"source": "patent US4705777A", "about": "“Cationic oligopeptides having microbicidal activity” (priority 1985, dated 1987)", "key": {"[1]": {"system": "Hemophilus influenzae Type 3A", "assay": "Antibacterial activity of rabbit granulocyte peptides (Table III), H. influenzae", "type": "cell-based", "details": "50 μg/ml, 20 min, 37° C., 10 mM sodium phosphate buffer pH 7.4", "procedure": "(§1) The procedure parallels that reported in Lehrer et al., Infection and Immunity (1983) 42:10-14. […] The subculture was grown at 37° C. for 4 h with shaking to provide mid-logarithmic phase organisms that were washed twice with buffer by centrifugation (2000×g, 10 min), and then quantitated spectrophotometrically at 620 nm, with reference to previously established CFU/Optical Density relationships. Bacteria were suspended and experiments were performed in 10 mM sodium phosphate buffer, pH 7.4. In some experiments, buffers were supplemented with 0.14 M NaCl (\"high\" ionic strength). […] In some experiments, 10 mM phosphate buffer with a pH of 5.8 and conductivity of 1.36 mMHO was used. Peptide \"stock solutions\" were prepared at 500 μg/ml (microbiuret assay) in 0.01% acetic acid, and stored at -20° C. Typically, incubation mixtures contained 1×10^5 bacterial CFU and 5 μg of peptide in 100 μl of buffer. After incubation for 20 min at 37° C., 900 μl of the same buffer was added, and two additional serial tenfold dilutions were made with that buffer. Duplicate 100 μl aliquots from the three serial dilutions were spread over appropriate nutrient agar plates and incubated for 24-72 h to insure full colony development. Killing of microorganisms was expressed as the logarithm10 No /N, where No represented the initial colony count and N represented the colony count after incubation with peptide. There was no significant alteration in colony count when any of the test organisms were exposed to peptide-free buffer for 20 min."}, "[2]": {"system": "Staphylococcus aureus 502A", "assay": "Antibacterial activity of rabbit granulocyte peptides (Table III), S. aureus 502A", "type": "cell-based", "details": "50 μg/ml, 20 min, 37° C., 10 mM sodium phosphate buffer pH 7.4", "procedure": "as §1"}, "[3]": {"system": "Bordetella bronchiseptica UCLA-342", "assay": "Antibacterial activity of rabbit granulocyte peptides (Table III), B. bronchiseptica", "type": "cell-based", "details": "50 μg/ml, 20 min, 37° C., 10 mM sodium phosphate buffer pH 7.4", "procedure": "as §1"}, "[4]": {"system": "Streptococcus pneumoniae Type III", "assay": "Antibacterial activity of rabbit granulocyte peptides (Table III), S. pneumoniae", "type": "cell-based", "details": "50 μg/ml, 20 min, 37° C., 10 mM sodium phosphate buffer pH 7.4", "procedure": "as §1"}, "[5]": {"system": "Streptococcus agalactiae Type IIIU", "assay": "Antibacterial activity of rabbit granulocyte peptides (Table III), S. agalactiae Type IIIU", "type": "cell-based", "details": "50 μg/ml, 20 min, 37° C., 10 mM sodium phosphate buffer pH 7.4", "procedure": "as §1"}, "[6]": {"system": "Klebsiella pneumoniae ATCC 13883", "assay": "Antibacterial activity of rabbit granulocyte peptides (Table III), K. pneumoniae", "type": "cell-based", "details": "50 μg/ml, 20 min", "procedure": "as §1"}, "[7]": {"system": "Listeria monocytogenes 450", "assay": "Antibacterial activity of rabbit granulocyte peptides (Table III), L. monocytogenes", "type": "cell-based", "details": "50 μg/ml, 20 min", "procedure": "as §1"}, "[8]": {"system": "Streptococcus Group B", "assay": "Antibacterial action, % killing (Table II), Streptococcus Group B", "type": "cell-based", "details": "50 μg/ml peptide, 10^7 bacterial cells/ml, 20 min, 37°", "procedure": "(§2) To test antibacterial action of the polypeptides, the following protocol was employed. Various species at 10^7 bacterial cells/ml are incubated for 20 min at 37° with 50 μg/ml of the candidate peptide. Colony counts (viable organisms) are made at the outset of the incubation--beforeaddition of the candidate peptide--and after 20 min of incubation with the candidate peptide."}, "[9]": {"system": "S. albus", "assay": "Antibacterial action, % killing (Table II), S. albus", "type": "cell-based, Staphylococcus albus", "details": "50 μg/ml peptide, 10^7 bacterial cells/ml, 20 min, 37°", "procedure": "as §2"}, "[10]": {"system": "Pseudomonas aeruginosa PAO 579", "assay": "Antibacterial activity of rabbit granulocyte peptides (Table III), P. aeruginosa", "type": "cell-based", "details": "50 μg/ml, 20 min", "procedure": "as §1"}, "[11]": {"system": "Staphylococcus aureus 566", "assay": "Antibacterial activity of rabbit granulocyte peptides (Table III), S. aureus 566", "type": "cell-based", "details": "50 μg/ml, 20 min, 37° C., 10 mM sodium phosphate buffer pH 7.4", "procedure": "as §1"}, "[12]": {"system": "Ps. aeruginosa", "assay": "Antibacterial action, % killing (Table II), Ps. aeruginosa", "type": "cell-based, Pseudomonas aeruginosa", "details": "50 μg/ml peptide, 10^7 bacterial cells/ml, 20 min, 37°", "procedure": "as §2"}, "[13]": {"system": "Staphylococcus aureus J.F.", "assay": "Antibacterial activity of rabbit granulocyte peptides (Table III), S. aureus J.F.", "type": "cell-based", "details": "50 μg/ml, 20 min, 37° C., 10 mM sodium phosphate buffer pH 7.4", "procedure": "as §1"}, "[14]": {"system": "S. aureus 502A", "assay": "Antibacterial action, % killing (Table II), S. aureus 502A", "type": "cell-based, Staphylococcus aureus", "details": "50 μg/ml peptide, 10^7 bacterial cells/ml, 20 min, 37°", "procedure": "as §2"}, "[15]": {"system": "Escherichia coli ATCC 29648", "assay": "Antibacterial activity of rabbit granulocyte peptides (Table III), E. coli", "type": "cell-based", "details": "50 μg/ml, 20 min, 37° C., 10 mM sodium phosphate buffer pH 7.4", "procedure": "as §1"}, "[16]": {"system": "L. monocytogenes", "assay": "Antibacterial action, % killing (Table II), L. monocytogenes", "type": "cell-based, Listeria monocytogenes", "details": "50 μg/ml peptide, 10^7 bacterial cells/ml, 20 min, 37°", "procedure": "as §2"}, "[17]": {"system": "Streptococcus agalactiae Type-I-A", "assay": "Antibacterial activity of rabbit granulocyte peptides (Table III), S. agalactiae Type-I-A", "type": "cell-based", "details": "50 μg/ml, 20 min", "procedure": "as §1"}, "[18]": {"system": "Staphylococcus epidermidis UCLA-622", "assay": "Antibacterial activity of rabbit granulocyte peptides (Table III), S. epidermidis", "type": "cell-based", "details": "50 μg/ml, 20 min, 37° C., 10 mM sodium phosphate buffer pH 7.4", "procedure": "as §1"}, "[19]": {"system": "Serratia marcescens", "assay": "Antibacterial activity of rabbit granulocyte peptides (Table III), S. marcescens", "type": "cell-based", "details": "50 μg/ml, 20 min, 37° C., 10 mM sodium phosphate buffer pH 7.4", "procedure": "as §1"}, "[20]": {"system": "E. coli", "assay": "Antibacterial action, % killing (Table II), E. coli", "type": "cell-based, Escherichia coli", "details": "50 μg/ml peptide, 10^7 bacterial cells/ml, 20 min, 37°", "procedure": "as §2"}, "[21]": {"details": "37° C., 10 mM sodium phosphate buffer pH 7.4"}, "[22]": {"details": "buffer pH 7.4 supplemented with 0.14 M NaCl"}}, "data": [{"substance": "val val cys ala cys arg arg ala leu cys leu pro leu glu arg arg ala gly phe cys arg ile arg gly arg ile his pro leu cys cys arg arg [NP-2]", "values": [{"measurement": "Bactericidal activity log10 No /N, Hemophilus influenzae Type 3A", "setting": "[1]", "value": 2.0, "unit": "log10"}, {"measurement": "Bactericidal activity log10 No /N, Staphylococcus aureus 502A", "setting": "[2]", "value": 2.4, "unit": "log10"}, {"measurement": "Bactericidal activity log10 No /N, Bordetella bronchiseptica UCLA-342", "setting": "[3]", "value": 0.1, "unit": "log10"}, {"measurement": "Bactericidal activity log10 No /N, Streptococcus pneumoniae Type III", "setting": "[4]", "value": "> 3.5", "unit": "log10"}, {"measurement": "Bactericidal activity log10 No /N, Streptococcus agalactiae Type IIIU", "setting": "[5]", "value": 2.9, "unit": "log10"}, {"measurement": "Bactericidal activity log10 No /N, Klebsiella pneumoniae ATCC 13883, pH 5.8", "setting": "[6]; 10 mM phosphate buffer pH 5.8", "value": 0.5, "unit": "log10"}, {"measurement": "Bactericidal activity log10 No /N, Klebsiella pneumoniae ATCC 13883", "setting": "[6]; [21]", "value": 1.1, "unit": "log10"}, {"measurement": "Bactericidal activity log10 No /N, Klebsiella pneumoniae ATCC 13883, \"High\" ionic strength", "setting": "[6]; [22]", "value": 0.0, "unit": "log10"}, {"measurement": "Bactericidal activity log10 No /N, Listeria monocytogenes 450, pH 5.8", "setting": "[7]; 10 mM phosphate buffer pH 5.8", "value": 0.1, "unit": "log10"}, {"measurement": "Bactericidal activity log10 No /N, Listeria monocytogenes 450", "setting": "[7]; [21]", "value": 2.1, "unit": "log10"}, {"measurement": "Bactericidal activity log10 No /N, Listeria monocytogenes 450, \"High\" ionic strength", "setting": "[7]; [22]", "value": 0.2, "unit": "log10"}, {"measurement": "% Killing, Streptococcus Group B", "setting": "[8]", "value": "C (50-90% killing)"}, {"measurement": "% Killing, S. albus", "setting": "[9]", "value": "B (90-99% killing)"}, {"measurement": "Bactericidal activity log10 No /N, Pseudomonas aeruginosa PAO 579, pH 5.8", "setting": "[10]; 10 mM phosphate buffer pH 5.8", "value": 0.2, "unit": "log10"}, {"measurement": "Bactericidal activity log10 No /N, Pseudomonas aeruginosa PAO 579", "setting": "[10]; [21]", "value": 3.2, "unit": "log10"}, {"measurement": "Bactericidal activity log10 No /N, Pseudomonas aeruginosa PAO 579, \"High\" ionic strength", "setting": "[10]; [22]", "value": 0.0, "unit": "log10"}, {"measurement": "Bactericidal activity log10 No /N, Staphylococcus aureus 566", "setting": "[11]", "value": "> 4.1", "unit": "log10"}, {"measurement": "% Killing, Ps. aeruginosa", "setting": "[12]", "value": "A (>99% killing)"}, {"measurement": "Bactericidal activity log10 No /N, Staphylococcus aureus J.F.", "setting": "[13]", "value": 2.9, "unit": "log10"}, {"measurement": "% Killing, S. aureus 502A", "setting": "[14]", "value": "D (<50% killing)"}, {"measurement": "Bactericidal activity log10 No /N, Escherichia coli ATCC 29648", "setting": "[15]", "value": 0.8, "unit": "log10"}, {"measurement": "% Killing, L. monocytogenes", "setting": "[16]", "value": "A (>99% killing)"}, {"measurement": "Bactericidal activity log10 No /N, Streptococcus agalactiae Type 1A, pH 5.8", "setting": "[17]; 10 mM phosphate buffer pH 5.8", "value": 0.1, "unit": "log10"}, {"measurement": "Bactericidal activity log10 No /N, Streptococcus agalactiae Type-I-A", "setting": "[17]; [21]", "value": 2.0, "unit": "log10"}, {"measurement": "Bactericidal activity log10 No /N, Streptococcus agalactiae Type 1A, \"High\" ionic strength", "setting": "[17]; [22]", "value": 0.1, "unit": "log10"}, {"measurement": "Bactericidal activity log10 No /N, Staphylococcus epidermidis UCLA-622", "setting": "[18]", "value": "> 4.1", "unit": "log10"}, {"measurement": "Bactericidal activity log10 No /N, Serratia marcescens", "setting": "[19]", "value": 1.0, "unit": "log10"}, {"measurement": "% Killing, E. coli", "setting": "[20]", "value": "B (90-99% killing)"}]}]}
